# Laboratory results as given in US11214803B2, “Modulators of YAP1 expression” (Ionis Pharmaceuticals, Inc., priority 2019, dated 2022).
# Strand notation (5' to 3'): a small letter for the sugar, then the base; units joined by * are phosphorothioate-linked, units joined directly phosphodiester-linked; [ ] holds rarer units or linkages, { } end groups; capitals alone tell only the bases. e = 2'-O-(2-methoxyethyl) (MOE); k = constrained ethyl (cEt); [5mC] = 5-methylcytosine; d = 2'-deoxy (DNA); m = 2'-O-methyl
# Tested on: Yap1 mRNA
# Test: Antisense inhibition of human Yap1 in SNU-449 cells by modified oligonucleotides, single dose (Example 5, RTS36584)
# Assay type: cell-based
# In short: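 Values are Yap1 mRNA as percent of untreated control cells, measured by quantitative real-time RT-PCR using RTS36584 and normalised to total RNA by RIBOGREEN. Cells were SNU-449, dosed by free uptake at 2,000 nM for approximately 48 hours.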
# [1] = Table 40 (separate experiment), SNU-449 cells, 10,000 cells per well, free uptake, 2,000 nM oligonucleotide, approx. 48 hours, RTS36584, normalized to RIBOGREEN, Yap1 mRNA relative to untreated control
# [2] = Table 44 experiment, SNU-449 cells, 10,000 cells per well, free uptake, 2,000 nM, approximately 48 hours, RTS36584, Yap1 mRNA normalized to RIBOGREEN, relative to untreated control cells
# [3] = Yap1 mRNA, percent of untreated control, modified oligonucleotides targeting SEQ ID NO: 1 and 2, Table 47
# [4] = Table 50, Yap1 mRNA remaining as percent of untreated control (UT), SNU-449 cells, single dose
# [5] = Table 42 (separate experiment), SNU-449 cells, 10,000 cells per well, free uptake, 2,000 nM modified oligonucleotide, approximately 48 hours, RTS36584, normalized to RIBOGREEN, Yap1 mRNA relative to untreated control cells
# [6] = Table 45, Yap1 mRNA as percent of untreated control, SNU-449 cells, single dose
# [7] = Table 52, Yap1 mRNA, modified oligonucleotides targeting SEQ ID NO: 1 and 2
# [8] = Table 46, Yap1 mRNA as percent of untreated control, SNU-449 cells, single dose
# [9] = Table 51, Yap1 mRNA remaining as percent of untreated control (UT), SNU-449 cells, single dose
# [10] = Table 39, SNU-449 cells, 10,000 cells per well, free uptake, 2,000 nM oligonucleotide, approx. 48 hours, RTS36584, normalized to RIBOGREEN, Yap1 mRNA relative to untreated control
substance,measurement,setting,value
1198761 (kT*eT*kT*dA*dG*dG*dA*dT*dG*d[5mC]*dA*dT*eG*eG*kT*kT; antisense) [Compound 1198761],YAP1 (% UTC),[1],42 % UTC
1198541 (antisense kT*kT*dA*dG*dA*d[5mC]*dT*dA*dA*dG*dT*eA*kA*eG*kG*eT) [Compound 1198541],YAP1 (% UTC),[2],34 % UTC
1198795 (antisense kT*eA*kA*dG*dG*dT*dT*dT*d[5mC]*d[5mC]*d[5mC]*dA*eG*eA*kT*kT) [Compound 1198795],YAP1 (% UTC),[1],43 % UTC
1197181 (antisense kT*kT*kA*d[5mC]*dA*dT*dT*dA*dG*dG*dA*dA*d[5mC]*kA*kA*kG) [Compound 1197181],YAP1 (% UT),[3],87 % UT
1198605 (antisense kG*kT*kA*dA*dT*dA*dT*dT*dG*d[5mC]*dA*dA*kT*k[5mC]*kT*eG) [Compound 1198605],YAP1 (% UT),[4],7 % UT
1198494 (antisense kG*kT*dG*d[5mC]*dT*dT*dT*dG*dG*dA*dA*eG*kA*eT*k[5mC]*eT) [Compound 1198494],YAP1 (% UTC),[2],15 % UTC
1198210 (kT*kT*dA*dG*dA*dG*dT*dA*dT*dG*dT*eG*eG*e[5mC]*kA*kA; antisense) [Compound 1198210],YAP1 (% UTC),[5],28 % UTC
1198743 (k[5mC]*eT*kT*dT*dT*dA*d[5mC]*dA*dT*dT*dA*dG*eG*eA*kA*k[5mC]; antisense) [Compound 1198743],YAP1 (% UTC),[1],86 % UTC
1198913 (kT*kT*dA*d[5mC]*dA*dT*dT*dA*dG*dG*dA*kA*d[5mC]*kA*dA*kG; antisense) [Compound 1198913],YAP1 (% UTC),[6],86 % UTC
1095509 (antisense kT*kG*dA*dG*dG*dT*dA*dT*dA*dA*d[5mC]*kT*dG*kG*dG*k[5mC]) [Compound 1095509],YAP1 (% UTC),[6],29 % UTC
1200832 (kA*kT*kT*dT*dA*mG*dG*dA*dT*dG*d[5mC]*dA*dT*kG*kG*kT; antisense) [Compound 1200832],YAP1 (% UT),[7],61 % UT
1198862 (kG*kA*d[5mC]*dA*dA*d[5mC]*dT*d[5mC]*dT*dT*dA*kT*eA*kT*eG*kG; antisense) [Compound 1198862],YAP1 (% UT),[3],72 % UT
1198841 (kT*kG*d[5mC]*dT*dT*dT*dG*dG*dA*dA*dG*kA*eT*k[5mC]*eT*kG; antisense) [Compound 1198841],YAP1 (% UT),[8],116 % UT
1197273 (kT*kA*kA*dG*mG*dT*dT*dT*d[5mC]*d[5mC]*d[5mC]*dA*dG*kA*kT*kT) [Compound 1197273],YAP1 (% UT),[9],68 % UT
1197228 (antisense kA*kA*kT*dT*mG*dT*d[5mC]*dT*d[5mC]*dA*dT*dG*d[5mC]*k[5mC]*kT*kT) [Compound 1197228],YAP1 (% UT),[4],25 % UT
1197313 (kA*kG*kT*dG*mU*dA*dT*dG*dT*d[5mC]*dA*dG*dA*kA*kG*kA; antisense) [Compound 1197313],YAP1 (% UT),[9],8 % UT
1198521 (kA*kT*dG*dT*dA*dA*dT*dA*dT*dT*dG*e[5mC]*kA*eA*kT*e[5mC]; antisense) [Compound 1198521],YAP1 (% UTC),[2],44 % UTC
1198948 (kG*kA*d[5mC]*dA*dA*d[5mC]*dT*d[5mC]*dT*dT*dA*kT*dA*kT*dG*kG; antisense) [Compound 1198948],YAP1 (% UTC),[6],96 % UTC
1198869 (kA*kT*dG*dT*dA*dA*dT*dA*dT*dT*dG*k[5mC]*eA*kA*eT*k[5mC]; antisense) [Compound 1198869],YAP1 (% UT),[8],49 % UT
1198921 (kT*kT*dA*dA*dG*d[5mC]*dA*d[5mC]*dT*dT*dT*kT*dA*k[5mC]*dA*kT; antisense) [Compound 1198921],YAP1 (% UTC),[6],89 % UTC
1198696 (antisense kT*kG*dT*dA*dT*dG*dT*d[5mC]*dA*dG*dA*dA*kG*eA*kG*eT) [Compound 1198696],YAP1 (% UTC),[5],12 % UTC
1198620 (kA*kG*kT*dA*dA*dG*dG*dT*dT*dT*d[5mC]*d[5mC]*k[5mC]*kA*kG*eA) [Compound 1198620],YAP1 (% UT),[4],26 % UT
1198693 (antisense kA*kT*dG*dT*dA*dA*dT*dA*dT*dT*dG*d[5mC]*kA*eA*kT*e[5mC]) [Compound 1198693],YAP1 (% UTC),[5],92 % UTC
1197220 (antisense kT*kA*kA*dG*dG*dT*dT*dT*d[5mC]*d[5mC]*d[5mC]*dA*dG*kA*kT*kT) [Compound 1197220],YAP1 (% UT),[3],32 % UT
1198395 (k[5mC]*dT*dT*dT*dT*dA*d[5mC]*dA*dT*dT*dA*kG*eG*kA*eA*k[5mC]; antisense) [Compound 1198395],YAP1 (% UTC),[10],35 % UTC
1198221 (kT*kT*dA*d[5mC]*dA*dT*dT*dA*dG*dG*dA*eA*e[5mC]*eA*kA*kG) [Compound 1198221],YAP1 (% UTC),[5],95 % UTC
1198409 (kA*dG*dT*dG*d[5mC]*dT*dT*dT*dG*dG*dA*kA*eG*kA*eT*k[5mC]; antisense) [Compound 1198409],YAP1 (% UTC),[10],19 % UTC
1200824 (kG*k[5mC]*kT*dT*dT*mG*dG*dA*dA*dG*dA*dT*d[5mC]*kT*kG*kA; antisense) [Compound 1200824],YAP1 (% UT),[7],43 % UT
1198410 (kA*dT*dA*dG*dT*dG*d[5mC]*dT*dT*dT*dG*kG*eA*kA*eG*kA; antisense) [Compound 1198410],YAP1 (% UTC),[10],48 % UTC
1198945 (kA*k[5mC]*dT*d[5mC]*dT*dT*dA*dT*dA*dT*dG*kG*dT*kT*dT*kT; antisense) [Compound 1198945],YAP1 (% UTC),[6],48 % UTC
1200838 (kA*kT*kA*dT*dG*mG*dT*dT*dT*dT*dG*dT*dG*kT*kG*kT; antisense) [Compound 1200838],YAP1 (% UT),[7],65 % UT
1198339 (kA*k[5mC]*kT*d[5mC]*dT*dT*dA*dT*dA*dT*dG*dG*kT*eT*kT*eT; antisense) [Compound 1198339],YAP1 (% UT),"Table 49, Yap1 mRNA level relative to untreated control, modified oligonucleotides targeting SEQ ID NO.: 1 and 2",25 % UT
1198904 (kT*kA*dT*dT*dA*dG*dA*dG*dT*dA*dT*kG*dT*kG*dG*k[5mC]; antisense) [Compound 1198904],YAP1 (% UTC),[2],12 % UTC
1200792 (kA*kT*kA*dT*dG*mG*dA*dA*dA*dT*dT*dG*dT*k[5mC]*kT*k[5mC]; antisense) [Compound 1200792],YAP1 (% UT),[7],52 % UT
1198415 (kG*dA*dT*dT*dT*dA*dG*dG*dA*dT*dG*k[5mC]*eA*kT*eG*kG; antisense) [Compound 1198415],YAP1 (% UTC),[10],29 % UTC
1198441 (kA*dA*dA*dG*dT*dG*dT*dA*dT*dG*dT*k[5mC]*eA*kG*eA*kA; antisense) [Compound 1198441],YAP1 (% UTC),[1],19 % UTC
1198855 (kT*kT*dA*dT*dA*dT*dG*dG*dT*dT*dT*kT*eG*kT*eG*kT; antisense) [Compound 1198855],YAP1 (% UT),[8],30 % UT
1198447 (kT*dA*dA*dG*dG*dT*dT*dT*d[5mC]*d[5mC]*d[5mC]*kA*eG*kA*eT*kT; antisense) [Compound 1198447],YAP1 (% UTC),[10],63 % UTC
1198811 (antisense kA*kT*dG*dG*dA*dA*dA*dT*dT*dG*dT*k[5mC]*eT*k[5mC]*eA*kT) [Compound 1198811],YAP1 (% UT),[8],38 % UT
1200862 (kT*kT*kT*dA*dA*mA*dG*dT*dG*dT*dA*dT*dG*kT*k[5mC]*kA; antisense) [Compound 1200862],YAP1 (% UT),[7],17 % UT
1198772 (k[5mC]*eT*k[5mC]*dT*dT*dA*dT*dA*dT*dG*dG*dT*eT*eT*kT*kG; antisense) [Compound 1198772],YAP1 (% UTC),"Table 41, SNU-449 cells, 10,000 cells per well, free uptake, 2,000 nM modified oligonucleotide, approximately 48 hours, RTS36584, normalized to RIBOGREEN, Yap1 mRNA relative to untreated control cells",41 % UTC
1197316 (kT*kA*kA*dG*mU*dA*dA*dG*dG*dT*dT*dT*d[5mC]*k[5mC]*k[5mC]*kA; antisense) [Compound 1197316],YAP1 (% UT),[9],46 % UT
